25 compounds from patent US20250163056A1, “NONMUSCLE MYOSIN II INHIBITORS” (The University of Florida Research Foundation, Inc., priority 2018, published 2025) can be followed below.

For one data set, the target named is Bovine cardiac myosin (Bos taurus (Bovine), UniProt Q9BE39). The data set can be described thus: Cardiac muscle myosin II actin-activated ATPase assay (NADH-coupled). In kind it is biochemical. More on the design: key to Ratio CMMII:NMII Ki/EC50: NMII-sel: no Ki value for cardiac myosin II could be determined; the compounds had no detectable inhibitory properties versus the cardiac myosin II. As to conditions: for pKi: 300 nM cardiac myosin, 10 μM actin, 25° C., read-out: CMMII KI; for Ratio CMMII:NMII Ki/EC50: cardiac myosin II Ki over nonmuscle myosin II EC50. Put shortly: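 Inhibitory constants came from a quadratic one-to-one binding fit of 16-point dose-responses (highest final 50 uM, triplicate). Rates were NADH-calibrated fluorescence slopes over 30 min at 25° C, with 300 nM bovine cardiac myosin, 10 μM actin and 1 mM ATP coupled through PK/LDH in pH 7.0 MOPS buffer.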

Data set [1] in a line: Photostability, percentage remaining undegraded under illumination or in the dark. The conditions noted are these: for Photostability 4 hours: percentage remaining undegraded after 4 hours illumination; for Photostability 24 hours: percentage remaining undegraded after 24 hours illumination; for Photostability Dark (24 h): percentage remaining undegraded in the dark.
Another data set concerns the target Rabbit skeletal myosin. Briefly: Skeletal muscle myosin II actin-activated ATPase assay. As to conditions: 20 nM skeletal muscle myosin II; read-out: SKMMII KI. The class given is biochemical. Put shortly: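 Inhibitory constants come from a quadratic one-site fit of 16-point, triplicate dose-response data, highest compound concentration 50 uM. Rates are slopes of NADH fluorescence decline over 30 min, coupling ATP turnover of 20 nM rabbit skeletal myosin II with 10 μM actin and 1 mM ATP via PK/LDH, pH 7.0, 25 °C.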

Structures are written as SMILES. pKi: −log10 of the molar value.

Chain of Bovine cardiac myosin (Q9BE39 whole entry): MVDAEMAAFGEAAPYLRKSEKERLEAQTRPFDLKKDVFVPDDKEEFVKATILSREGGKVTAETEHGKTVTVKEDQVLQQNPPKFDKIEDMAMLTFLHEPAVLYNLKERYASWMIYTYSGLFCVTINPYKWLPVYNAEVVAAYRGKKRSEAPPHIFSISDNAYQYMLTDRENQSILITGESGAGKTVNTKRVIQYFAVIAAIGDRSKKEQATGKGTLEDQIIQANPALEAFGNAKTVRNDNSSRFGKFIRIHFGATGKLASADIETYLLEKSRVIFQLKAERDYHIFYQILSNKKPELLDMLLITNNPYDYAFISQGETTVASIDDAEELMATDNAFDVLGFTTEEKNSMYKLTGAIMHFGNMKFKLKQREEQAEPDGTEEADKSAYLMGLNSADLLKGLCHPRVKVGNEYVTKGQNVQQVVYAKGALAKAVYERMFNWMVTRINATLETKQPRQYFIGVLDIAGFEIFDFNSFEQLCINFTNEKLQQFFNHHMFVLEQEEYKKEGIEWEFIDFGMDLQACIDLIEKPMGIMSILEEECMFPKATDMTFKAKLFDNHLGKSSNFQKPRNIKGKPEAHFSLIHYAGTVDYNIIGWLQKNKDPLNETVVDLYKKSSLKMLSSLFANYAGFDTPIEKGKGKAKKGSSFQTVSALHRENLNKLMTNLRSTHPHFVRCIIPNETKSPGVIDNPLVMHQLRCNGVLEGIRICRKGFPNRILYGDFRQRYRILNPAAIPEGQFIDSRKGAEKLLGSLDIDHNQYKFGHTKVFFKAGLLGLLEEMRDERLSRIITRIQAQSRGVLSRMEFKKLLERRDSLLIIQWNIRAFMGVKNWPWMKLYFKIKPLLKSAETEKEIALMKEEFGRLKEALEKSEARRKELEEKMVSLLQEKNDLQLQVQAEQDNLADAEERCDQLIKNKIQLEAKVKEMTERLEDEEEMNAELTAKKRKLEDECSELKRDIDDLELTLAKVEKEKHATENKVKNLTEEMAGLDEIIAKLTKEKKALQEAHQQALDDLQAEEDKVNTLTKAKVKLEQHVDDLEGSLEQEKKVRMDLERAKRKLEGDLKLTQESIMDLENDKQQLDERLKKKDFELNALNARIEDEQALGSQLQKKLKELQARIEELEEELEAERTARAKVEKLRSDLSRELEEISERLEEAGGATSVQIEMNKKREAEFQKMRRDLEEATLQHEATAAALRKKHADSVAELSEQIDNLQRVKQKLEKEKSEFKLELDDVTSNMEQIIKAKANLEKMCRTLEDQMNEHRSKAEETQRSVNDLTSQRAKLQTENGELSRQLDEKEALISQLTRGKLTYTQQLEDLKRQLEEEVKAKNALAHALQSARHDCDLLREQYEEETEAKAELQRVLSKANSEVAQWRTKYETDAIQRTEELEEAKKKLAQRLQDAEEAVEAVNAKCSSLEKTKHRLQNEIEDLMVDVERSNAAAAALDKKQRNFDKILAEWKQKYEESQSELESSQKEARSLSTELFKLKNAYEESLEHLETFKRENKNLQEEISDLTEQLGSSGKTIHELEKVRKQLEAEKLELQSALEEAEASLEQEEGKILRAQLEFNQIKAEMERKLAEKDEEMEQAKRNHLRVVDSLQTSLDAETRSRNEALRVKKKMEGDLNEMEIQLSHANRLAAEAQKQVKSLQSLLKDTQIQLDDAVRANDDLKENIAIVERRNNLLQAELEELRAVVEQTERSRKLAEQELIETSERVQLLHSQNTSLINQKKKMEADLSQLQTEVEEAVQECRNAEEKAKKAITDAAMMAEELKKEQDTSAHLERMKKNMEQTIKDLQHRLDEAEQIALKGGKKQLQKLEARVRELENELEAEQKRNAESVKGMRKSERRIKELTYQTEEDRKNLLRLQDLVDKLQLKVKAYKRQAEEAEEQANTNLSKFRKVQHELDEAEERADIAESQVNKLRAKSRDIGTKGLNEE
Chain of Bovine cardiac myosin (P85100 whole entry partner): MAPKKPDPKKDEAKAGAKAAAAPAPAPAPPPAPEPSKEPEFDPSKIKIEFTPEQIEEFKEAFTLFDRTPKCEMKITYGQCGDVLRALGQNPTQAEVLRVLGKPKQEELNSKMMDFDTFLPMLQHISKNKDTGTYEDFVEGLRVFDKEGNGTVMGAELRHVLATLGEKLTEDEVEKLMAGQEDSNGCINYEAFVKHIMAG
Chain of Bovine cardiac myosin (Q3SZE5 whole entry partner): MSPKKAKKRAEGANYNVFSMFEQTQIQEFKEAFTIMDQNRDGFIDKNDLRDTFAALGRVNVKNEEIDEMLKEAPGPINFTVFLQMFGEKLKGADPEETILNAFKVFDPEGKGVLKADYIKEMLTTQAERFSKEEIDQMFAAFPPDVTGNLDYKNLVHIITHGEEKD

In the case of `CNc1cc(N2CC[C@@]3(O)C(=O)c4cc(C)c(C)cc4N=C23)ccn1` [BPN-0028650], on Bovine cardiac myosin, the negative logarithm of the Ki (pKi) (usually −log10 of the Ki, conventionally taken in molar units) is 4.40 and the “Ratio CMMII:NMII Ki/EC50” value was determined as 4.4. For the same compound, in data set [1], the “Photostability 4 hours” value turned out to be 88.7%, the “Photostability 24 hours” value is 62.6% and the “Photostability Dark (24 h)” value is given as 93.4%. Also, the pKi on Rabbit skeletal myosin was 4.92.
With `Cc1ccc2c(c1)C(=O)[C@]1(O)CCN(c3ccc4ncc(N)cc4c3)C1=N2` [BPN-0028652], on Bovine cardiac myosin, the negative-log Ki (pKi) is 4.10 and the “Ratio CMMII:NMII Ki/EC50” value was 9.6. Further, in data set [1], the “Photostability 4 hours” value is 86.2%, the “Photostability 24 hours” value was determined as 22.8% and the “Photostability Dark (24 h)” value worked out at 98.5%. Besides, the pKi on Rabbit skeletal myosin is 5.89.
Consider `Cc1cc2c(cc1C)C(=O)[C@]1(O)CCN(c3cnc(C)c(C)c3)C1=N2` [BPN-0028694], for which, on Bovine cardiac myosin, the negative logarithm of the Ki (pKi) is 4.80 and the “Ratio CMMII:NMII Ki/EC50” value amounted to 8.4. For the same compound, in data set [1], the “Photostability 4 hours” value was 55.3%, the “Photostability 24 hours” value stood at 11.2% and the “Photostability Dark (24 h)” value amounted to 98.0%. Further, on Rabbit skeletal myosin, the negative-log Ki (pKi) is 5.77.
As for `Cc1cc(C)c2c(c1)N=C1N(c3ccc4ncccc4c3)CC[C@@]1(O)C2=O` [BPN-0028697], on Bovine cardiac myosin, the pKi is 4.22 and the “Ratio CMMII:NMII Ki/EC50” value came out at 7.5. In data set [1], the “Photostability 4 hours” value amounted to 88.4%, the “Photostability 24 hours” value worked out at 25.4% and the “Photostability Dark (24 h)” value was 97.3%. Besides, the pKi on Rabbit skeletal myosin is 5.72.
Consider `Cc1cc2c(cc1C)C(=O)[C@]1(O)CCN(c3cnc(C)c(C)c3)C1=N2` [BPN-0028731], for which, on Bovine cardiac myosin, the pKi was 4.40 and the “Ratio CMMII:NMII Ki/EC50” value worked out at 7.7. Further, in data set [1], the “Photostability 4 hours” value came out at 37.6%, the “Photostability 24 hours” value amounted to 7.4% and the “Photostability Dark (24 h)” value was above 99%. Besides, the pKi on Rabbit skeletal myosin was 5.66.
For `Cc1cc2c(cc1C)C(=O)[C@]1(O)CCN(c3cnc(CO)c(C)c3)C1=N2` [BPN-0028733], at Bovine cardiac myosin, the pKi is 4.57 and the “Ratio CMMII:NMII Ki/EC50” value was 3.1. Moreover, in data set [1], the “Photostability 4 hours” value is recorded as 82.1%, the “Photostability 24 hours” value is 14.8% and the “Photostability Dark (24 h)” value is on record as 96.6%. In addition, on Rabbit skeletal myosin, the pKi was 5.17.
For `Cc1cc2c(cc1C)C(=O)[C@]1(O)CCN(c3cnc4c(c3)NCCO4)C1=N2` [BPN-0028734], at Bovine cardiac myosin, the negative-log Ki (pKi) was 4.82 and the “Ratio CMMII:NMII Ki/EC50” value was determined as 5.0. Also, in data set [1], the “Photostability 4 hours” value amounted to 76%, the “Photostability 24 hours” value is below 1% and the “Photostability Dark (24 h)” value is listed as 96.3%. For the same compound, the negative-log Ki (pKi) at Rabbit skeletal myosin is 5.54.
For the compound `Cc1cc2c(cc1C)C(=O)[C@]1(O)CCN(c3ccc4ncc(CO)cc4c3)C1=N2` [BPN-0028736], on Bovine cardiac myosin, the pKi was 4.05 and the “Ratio CMMII:NMII Ki/EC50” value turned out to be 6.9. In data set [1], the “Photostability 4 hours” value is listed as 64%, the “Photostability 24 hours” value stood at 2% and the “Photostability Dark (24 h)” value amounted to 95.3%. Also, at Rabbit skeletal myosin, the pKi was 5.82.
On to `Cc1cc2c(cc1C)C(=O)[C@]1(O)CCN(c3ccc4c(c3)COCCN4)C1=N2` [BPN-0028758], for which, on Bovine cardiac myosin, the negative-log Ki (pKi) is 3.68 and the “Ratio CMMII:NMII Ki/EC50” value is 4.1. In addition, in data set [1], the “Photostability 4 hours” value is 90.9%, the “Photostability 24 hours” value stood at 55.3% and the “Photostability Dark (24 h)” value came out at 93.3%. In addition, the pKi at Rabbit skeletal myosin is 4.40.
For `Cc1cc2c(cc1C)C(=O)[C@]1(O)CCN(c3cnc(C#N)c(C)c3)C1=N2` [BPN-0028760], at Bovine cardiac myosin, the negative-log Ki (pKi) was 4.80 and the “Ratio CMMII:NMII Ki/EC50” value amounted to 4.3. For the same compound, in data set [1], the “Photostability 4 hours” value came to 87.9%, the “Photostability 24 hours” value was found to be 83% and the “Photostability Dark (24 h)” value is 87.6%. Besides, at Rabbit skeletal myosin, the negative-log Ki (pKi) is 6.03.
As to `Cc1cc2c(cc1C)C(=O)[C@]1(O)CCN(c3ccc4c(c3)NCCO4)C1=N2` [BPN-0028790], at Bovine cardiac myosin, the pKi was 5.62 and the “Ratio CMMII:NMII Ki/EC50” value was found to be 3.8. Besides, in data set [1], the “Photostability 4 hours” value was 92.7%, the “Photostability 24 hours” value came to 64% and the “Photostability Dark (24 h)” value stood at 95.3%. Further, the pKi on Rabbit skeletal myosin was 6.00.
Take `COc1ncc(N2CC[C@@]3(O)C(=O)c4cc(C)c(C)cc4N=C23)cc1Cl` [BPN-0028820]: the “Ratio CMMII:NMII Ki/EC50” value at Bovine cardiac myosin was “NMII-sel”. Moreover, in data set [1], the “Photostability 4 hours” value came to 80.9%, the “Photostability 24 hours” value is recorded as 62.7% and the “Photostability Dark (24 h)” value is 94.2%. Besides, at Rabbit skeletal myosin, the pKi was 5.52.
On to `Cc1cc2c(cc1C)C(=O)[C@]1(O)CCN(c3cnc4c(c3)OCCN4)C1=N2` [BPN-0028821], for which, at Bovine cardiac myosin, the pKi is 4.92 and the “Ratio CMMII:NMII Ki/EC50” value is on record as 12.5. Also, in data set [1], the “Photostability 4 hours” value is 89.8%, the “Photostability 24 hours” value is 29.1% and the “Photostability Dark (24 h)” value is 98.5%. Besides, on Rabbit skeletal myosin, the negative-log Ki (pKi) was 6.11.
With `Cc1ccc2cc(N3CC[C@@]4(O)C(=O)c5sc(C)cc5N=C34)ccc2n1` [BPN-0028863], at Bovine cardiac myosin, the “Ratio CMMII:NMII Ki/EC50” value is given as “NMII-sel”. In addition, in data set [1], the “Photostability 4 hours” value was determined as 98.8%, the “Photostability 24 hours” value was 94.7% and the “Photostability Dark (24 h)” value came to 99%. Moreover, at Rabbit skeletal myosin, the negative logarithm of the Ki (pKi) was 5.55.
The like results for `CCc1cc(N2CC[C@@]3(O)C(=O)c4cc(C)c(C)cc4N=C23)ccn1` [BPN-0028864] were, in that order, “NMII-sel”, 97.4%, 88.4%, 98.4% and 4.92.
The corresponding values for `Cc1cc2c(cc1C)C(=O)[C@]1(O)CCN(c3ccc4ncc(CN(C)C)cc4c3)C1=N2` [BPN-0028866] are “NMII-sel”, 77.8%, 2.9%, 97.8% and 3.40.
The corresponding values for `CCc1ccc2cc(N3CC[C@@]4(O)C(=O)c5cc(C)c(C)cc5N=C34)ccc2n1` [BPN-0028867] are “NMII-sel”, 69.9%, 1%, 98.7% and 5.89.
As to `Cc1cc2c(cc1C)C(=O)[C@]1(O)CCN(c3ccc4nc(C)c(C)cc4c3)C1=N2` [BPN-0028868], on Bovine cardiac myosin, the negative logarithm of the Ki (pKi) is 4.62 and the “Ratio CMMII:NMII Ki/EC50” value came to 31.6. In data set [1], the “Photostability 4 hours” value is 46.7%, the “Photostability 24 hours” value turned out to be 43.3% and the “Photostability Dark (24 h)” value is reported as 98.9%. Also, at Rabbit skeletal myosin, the pKi is 6.64.
`Cc1cc2c(cc1C)C(=O)[C@]1(O)CCN(c3ccc4nc(CN(C)C)ccc4c3)C1=N2` [BPN-0028897]: on Bovine cardiac myosin, the negative-log Ki (pKi) is 3.52 and the “Ratio CMMII:NMII Ki/EC50” value amounted to 33.3. Also, in data set [1], the “Photostability 4 hours” value is recorded as 82.8%, the “Photostability 24 hours” value came to 5.4% and the “Photostability Dark (24 h)” value was found to be 98.4%. In addition, on Rabbit skeletal myosin, the negative logarithm of the Ki (pKi) is 3.96.
`Cc1ccc2cc(N3CC[C@@]4(O)C(=O)c5cc(C)sc5N=C34)ccc2n1` [BPN-0028898]: on Bovine cardiac myosin, the negative-log Ki (pKi) was 4.02 and the “Ratio CMMII:NMII Ki/EC50” value amounted to 31.7. Besides, in data set [1], the “Photostability 4 hours” value was determined as 93.4%, the “Photostability 24 hours” value worked out at 58.1% and the “Photostability Dark (24 h)” value turned out to be 96.4%. The negative logarithm of the Ki (pKi) at Rabbit skeletal myosin is 5.72.
With `Cc1cc2c(cc1C)C(=O)[C@]1(O)CCN(c3ccc4nc(N)ccc4c3)C1=N2` [BPN-0028899], the “Ratio CMMII:NMII Ki/EC50” value on Bovine cardiac myosin is recorded as “NMII-sel”. In data set [1], the “Photostability 4 hours” value was found to be 70.8%, the “Photostability 24 hours” value is 29.7% and the “Photostability Dark (24 h)” value is recorded as 97.8%. In addition, at Rabbit skeletal myosin, the negative logarithm of the Ki (pKi) is 5.42.
As to `CCc1nc2cc(N3CC[C@@]4(O)C(=O)c5cc(C)c(C)cc5N=C34)ccc2s1` [BPN-0028918], on Bovine cardiac myosin, the negative-log Ki (pKi) was 4.96 and the “Ratio CMMII:NMII Ki/EC50” value is 5.5. For the same compound, in data set [1], the “Photostability 4 hours” value is 54.2%, the “Photostability 24 hours” value was found to be 7.8% and the “Photostability Dark (24 h)” value is above 99%. Besides, the pKi at Rabbit skeletal myosin was 6.19.
Regarding `Cc1cc2c(cc1C)C(=O)[C@]1(O)CCN(c3ccc4sc(C(C)C)nc4c3)C1=N2` [BPN-0028919], at Bovine cardiac myosin, the “Ratio CMMII:NMII Ki/EC50” value is given as “NMII-sel”. Moreover, in data set [1], the “Photostability 4 hours” value is reported as 48.4%, the “Photostability 24 hours” value was below 1% and the “Photostability Dark (24 h)” value was 98.5%. Also, the pKi on Rabbit skeletal myosin was 5.85.
The corresponding values for `Cc1cc2c(cc1C)C(=O)[C@]1(O)CCN(c3cnc4c(c3)CCCC4)C1=N2` [BPN-0028920] are “NMII-sel”, 36.6%, 2.5%, 98.4% and 5.41.
Consider `Cc1cc2c(cc1C)C(=O)[C@]1(O)CCN(c3ccc4c(c3)OCCO4)C1=N2` [BPN-0028921], for which, at Bovine cardiac myosin, the pKi was 5.08 and the “Ratio CMMII:NMII Ki/EC50” value was determined as 11.2. Further, in data set [1], the “Photostability 4 hours” value was found to be 2.8%, the “Photostability 24 hours” value is listed as 3.1% and the “Photostability Dark (24 h)” value came to 97.2%. For the same compound, the negative-log Ki (pKi) at Rabbit skeletal myosin was 6.00.
